Laboratory results from US9624200B2, “Therapeutic piperazines” (DART NEUROSCIENCE (CAYMAN) LTD., priority 2006, dated 2017).

system: PDE4 from human U-937 cells; assay: PDE4 Inhibition Assay; assay type: biochemical; settings: 1 μM cAMP, [3H]-cAMP, read-out: Potency Class (Inhibitory Concentration) in the PDE4 assay
Experimental: PDE4 from human U-937 cells was used (see T. J. Torphy, et al., J. Pharmacol. Exp. Ther., 1992, 263, 1195-1205). Test compound at various concentration and/or vehicle was preincubated with 2 μg/ml enzyme in Tris-HCl buffer pH 7.5 for 15 minutes at 25° C. The reaction was initiated by addition of 1 1 μM cAMP and 0.01 1 μM [^3H]-cAMP for another 20 minute incubation period and terminated at 100° C. The resulting [^3H]-AMP was converted to [^3H]-adenosine by addition of snake venom nucleotidase and separated by AG1-X2 resin. An aliquot was removed and counted to determine the amount of [^3H]-adenosine formed. Results were converted to percent inhibition and IC so determined using XLfit from IDBS (ID Business Solutions Ltd., 2 Occam Court, Surrey Research Park, Guildford, Surrey, GU2 7QB UK).
Representative compounds of the present invention were tested and found to have significant PDE4 inhibition in this assay.

IC50 [nM]	Compound
> 1000	COc1ccc(N2CCN(CCc3cnc[nH]3)[C@@H](Cc3ccccc3)C2)cc1OC1CCCC1 [Compound 242, (S)-1-(2-(1H-imidazol-5-yl)ethyl)-2-benzyl-4-(3-(cyclopentyloxy)-4-methoxyphenyl)piperazine]
200 to 1000	COc1ccc(N2CCN(C(=O)Cc3cncs3)[C@@H](Cc3ccccc3)C2)cc1OC1CCCC1 [Compound 291, (S)-1-(2-benzyl-4-(3-(cyclopentyloxy)-4-methoxyphenyl)piperazin-1-yl)-2-(thiazol-5-yl)ethanone]
< 200	COc1ccc(N2CCN(C(C)=O)[C@@H](Cc3cccc(C)c3)C2)cc1OC1CCCC1 [Compound 248, (S)-1-(4-(3-(cyclopentyloxy)-4-methoxyphenyl)-2-(3-methylbenzyl)piperazin-1-yl)ethanone]
< 200	COc1ccc(N2CCN(C(=O)Cc3nc(N)n[nH]3)[C@@H](Cc3ccccc3)C2)cc1OC(C)C [Compound 337, (S)-2-(3-amino-1H-1,2,4-triazol-5-yl)-1-(2-benzyl-4-(3-isopropoxy-4-methoxyphenyl)piperazin-1-yl)ethanone]
200 to 1000	COc1ccc(N2CCN(C(=O)C(C)(C)O)[C@@H](Cc3ccccc3)C2)cc1OC1CCCC1 [Compound 282, (S)-1-(2-benzyl-4-(3-(cyclopentyloxy)-4-methoxyphenyl)piperazin-1-yl)-2-hydroxy-2-methylpropan-1-one]
< 200	COc1ccc(N2CCN(C(=O)Cc3ncccn3)[C@@H](Cc3ccccc3)C2)cc1OC1CCCC1 [Compound 388, (S)-1-(2-benzyl-4-(3-(cyclopentyloxy)-4-methoxyphenyl)piperazin-1-yl)-2-(pyrimidin-2-yl)ethanone]
> 1000	CCc1nn(C2CCC2)c2cc(N3CCN(C(=O)Cc4ncccn4)[C@@H](Cc4ccccc4)C3)ccc12 [Compound 353, (S)-1-(2-benzyl-4-(1-cyclobutyl-3-ethyl-1H-indazol-6-yl)piperazin-1-yl)-2-(pyrimidin-2-yl)ethanone]
> 1000	COc1ccc(N2CCN(C(=O)c3ccc(CO)cc3)[C@@H](Cc3ccccc3)C2)cc1OC1CCCC1 [Compound 360, (S)-(2-benzyl-4-(3-(cyclopentyloxy)-4-methoxyphenyl)piperazin-1-yl)(4-(hydroxymethyl)phenyl)methanone]
< 200	COc1ccc(N2CCN(C(=O)Cc3n[nH]c([N+](=O)[O-])n3)[C@@H](Cc3ccccc3)C2)cc1OC1CCCC1 [Compound 325, (S)-1-(2-benzyl-4-(3-(cyclopentyloxy)-4-methoxyphenyl)piperazin-1-yl)-2-(5-nitro-1H-1,2,4-triazol-3-yl)ethanone]
< 200	COc1ccc(N2CCN(C(=O)[C@@H]3CNC(=O)N3)[C@@H](Cc3ccccc3)C2)cc1OC1CCCC1 [Compound 292, (S)-4-((S)-2-benzyl-4-(3-(cyclopentyloxy)-4-methoxyphenyl)piperazine-1-carbonyl)imidazolidin-2-one]
> 1000	COc1ccc(N2CCN(C(=O)COC(C)=O)[C@@H](Cc3ccccc3)C2)cc1OC1CCCC1 [Compound 284, (S)-2-(2-benzyl-4-(3-(cyclopentyloxy)-4-methoxyphenyl)piperazin-1-yl)-2-oxoethyl acetate]
200 to 1000	COc1ccc(N2CCN(C(=O)Cc3ccc[nH]3)[C@@H](Cc3ccccc3)C2)cc1OC1CCCC1 [Compound 306, (S)-1-(2-benzyl-4-(3-(cyclopentyloxy)-4-methoxyphenyl)piperazin-1-yl)-2-(1H-pyrrol-2-yl)ethanone]
200 to 1000	COc1ccc(N2CCN(C(=O)C3CNC(=O)C3)[C@@H](Cc3ccccc3)C2)cc1OC1CCCC1 (stereo partly drawn) [Compound 299, 4-((S)-2-benzyl-4-(3-(cyclopentyloxy)-4-methoxyphenyl)piperazine-1-carbonyl)pyrrolidin-2-one]
200 to 1000	COc1ccc(N2CCN(C(=O)Cc3ncccn3)[C@@H](Cc3ccccc3)C2)cc1OC(C)C [Compound 343, (S)-1-(2-benzyl-4-(3-isopropoxy-4-methoxyphenyl)piperazin-1-yl)-2-(pyrimidin-2-yl)ethanone]
200 to 1000	CC(C)C[C@H]1CN(c2ccc(OC(F)F)c(OC3CCCC3)c2)CCN1C(=O)Cc1c[nH]cn1 [Compound 366, (S)-1-(4-(3-(cyclopentyloxy)-4-(difluoromethoxy)phenyl)-2-isobutylpiperazin-1-yl)-2-(1H-imidazol-4-yl)ethanone]
200 to 1000	COc1ccc(N2CCN(C(=O)Cc3n[nH]c(=O)[nH]3)[C@@H](Cc3ccccc3)C2)cc1OC1CCCC1 [Compound 293, (S)-3-(2-(2-benzyl-4-(3-(cyclopentyloxy)-4-methoxyphenyl)piperazin-1-yl)-2-oxoethyl)-1H-1,2,4-triazol-5(4H)-one]
< 200	COc1ccc(N2CCN(C(=O)Cc3nc(C)n[nH]3)[C@@H](Cc3ccccc3)C2)cc1OC(C)C [Compound 330, (S)-1-(2-benzyl-4-(3-isopropoxy-4-methoxyphenyl)piperazin-1-yl)-2-(3-methyl-1H-1,2,4-triazol-5-yl)ethanone]
200 to 1000	COc1ccc(N2CCN(CC(N)=O)[C@@H](Cc3ccccc3)C2)cc1OC(F)F [Compound 271, (S)-2-(2-benzyl-4-(3-(difluoromethoxy)-4-methoxyphenyl)piperazin-1-yl)acetamide]
> 1000	CCc1nn(C(C)C)c2cc(N3CCN(C(C)=O)[C@@H](Cc4ccccc4)C3)ccc12 [Compound 379, (S)-1-(2-benzyl-4-(3-ethyl-1-isopropyl-1H-indazol-6-yl)piperazin-1-yl)ethanone]
> 1000	CCc1nn(C(C)C)c2cc(N3CCN(CC(N)=O)[C@@H](Cc4ccccc4)C3)ccc12 [Compound 383, (S)-2-(2-benzyl-4-(3-ethyl-1-isopropyl-1H-indazol-6-yl)piperazin-1-yl)acetamide]
> 1000	CCc1nn(C2CCC2)c2cc(N3CCN(CC(N)=O)[C@@H](Cc4ccccc4)C3)ccc12 [Compound 275, (S)-2-(2-benzyl-4-(1-cyclobutyl-3-ethyl-1H-indazol-6-yl)piperazin-1-yl)acetamide]
< 200	Cc1n[nH]c(CC(=O)N2CCN(c3ccc(OC(F)F)c(OC(F)F)c3)C[C@@H]2Cc2ccccc2)n1 [Compound 332, (S)-1-(2-benzyl-4-(3,4-bis(difluoromethoxy)phenyl)piperazin-1-yl)-2-(3-methyl-1H-1,2,4-triazol-5-yl)ethanone]
> 1000	COc1ccc(N2CCN(C(=O)[C@@H]3CCC(=O)O3)[C@@H](Cc3ccccc3)C2)cc1OC1CCCC1 [Compound 295, (S)-5-((S)-2-benzyl-4-(3-(cyclopentyloxy)-4-methoxyphenyl)piperazine-1-carbonyl)dihydrofuran-2 (3H)-one]
> 1000	CCc1nn(C(C)C)c2cc(N3CCN(C(=O)CC(N)=O)[C@@H](Cc4ccccc4)C3)ccc12 [Compound 382, (S)-3-(2-benzyl-4-(3-ethyl-1-isopropyl-1H-indazol-6-yl)piperazin-1-yl)-3-oxopropanamide]
> 1000	CCc1nn(C2CCC2)c2cc(N3CCN(C(=O)CN)[C@@H](Cc4ccccc4)C3)ccc12 [Compound 351, (S)-2-amino-1-(2-benzyl-4-(1-cyclobutyl-3-ethyl-1H-indazol-6-yl)piperazin-1-yl)ethanone]
< 200	COc1ccc(N2CCN(C(=O)Cc3cccnc3)[C@@H](Cc3ccccc3)C2)cc1OC1CCCC1 [Compound 385, (S)-1-(2-benzyl-4-(3-(cyclopentyloxy)-4-methoxyphenyl)piperazin-1-yl)-2-(pyridin-3-yl)ethanone]

Compound	IC50 [nM]
COc1ccc(N2CCN(C(=O)Cc3n[nH]c(C)n3)[C@@H](CN3CCOCC3)C2)cc1OC1CCCC1 [Compound 256, (S)-1-(4-(3-(cyclopentyloxy)-4-methoxyphenyl)-2-(morpholinomethyl)piperazin-1-yl)-2-(5-methyl-1H-1,2,4-triazol-3-yl)ethanone]	< 200
O=C(Cc1c[nH]cn1)N1CCN(c2ccc(OC(F)F)c(OC3CCC3)c2)C[C@@H]1Cc1ccccc1 [Compound 344, (S)-1-(2-benzyl-4-(3-cyclobutoxy-4-(difluoromethoxy)phenyl)piperazin-1-yl)-2-(1H-imidazol-4-yl)ethanone]	< 200
CNCC(=O)N1CCN(c2ccc(OC)c(OC3CCC3)c2)C[C@@H]1Cc1ccccc1 [Compound 350, (S)-1-(2-benzyl-4-(3-cyclobutoxy-4-methoxyphenyl)piperazin-1-yl)-2-(methylamino)ethanone]	> 1000
COc1ccc(N2CCN(C(=O)C3(C(=O)O)CCC3)[C@@H](Cc3ccccc3)C2)cc1OC1CCC1 [Compound 315, (S)-1-(2-benzyl-4-(3-cyclobutoxy-4-methoxyphenyl)piperazine-1-carbonyl)cyclobutanecarboxylic acid]	< 200
COc1ccc(N2CCN(C(=O)Cc3n[nH]c(N)n3)[C@@H](Cc3ccccc3)C2)cc1OC1CCC1 [Compound 339, (S)-2-(5-amino-1H-1,2,4-triazol-3-yl)-1-(2-benzyl-4-(3-cyclobutoxy-4-methoxyphenyl)piperazin-1-yl)ethanone]	< 200
COc1ccc(N2CCN(C(=O)CCN)[C@@H](Cc3ccccc3)C2)cc1OC1CCC1 [Compound 274, (S)-3-amino-1-(2-benzyl-4-(3-cyclobutoxy-4-methoxyphenyl)piperazin-1-yl)propan-1-one]	> 1000
NC(=O)CC(=O)N1CCN(c2ccc(OC(F)F)c(OC3CCC3)c2)C[C@@H]1Cc1ccccc1 [Compound 263, (S)-3-(2-benzyl-4-(3-cyclobutoxy-4-(difluoromethoxy)phenyl)piperazin-1-yl)-3-oxopropanamide]	< 200
